≈ marks a conversion by molar mass, not a printed value. Values belong to the compound of their own block, whether it stands above or below them.
Experiments:
[1] = Stability constant (K1:1) of active pharmaceutical ingredient/γ-cyclodextrin complexes from phase-solubility profiles; format: physicochemical; settings: initial linear part of phase-solubility profile
From the text: (§1) Kinase inhibitors were suspended in aqueous solutions containing from 1% (w/v) to 15% (w/v) γ-cyclodextrin.

[2] = Solubility of kinase inhibitors in aqueous γ-cyclodextrin media; format: physicochemical; settings: aqueous with cosolvent or surfactant or cyclodextrin, thermodynamic from solid
Procedure: Kinase inhibitors were suspended in aqueous media consisting of pure water, aqueous γ-cyclodextrin solution, aqueous solution containing γ-cyclodextrin and tyloxapol (1% w/v), and aqueous eye drop medium containing γ-cyclodextrin, benzalkonium chloride (0.02% w/v), disodium edetate (0.10% w/v) and sodium chloride (0.05% w/v). The concentration of γ-cyclodextrin varied depending on the kinase inhibitor. The solubility was determined as described in Example 10.

[3] = Solubility of kinase inhibitors in pure water (S0) from phase-solubility profiles; format: physicochemical; settings: for solubility: 25 °C, water, thermodynamic from solid, read-out: S0 (mg/mL), solubility in pure water
From the text: as §1

[4] = 25° C.; cited from earlier work
[5] = aqueous eye drop medium with 4% w/v γ-cyclodextrin, eye drop medium: 4 % w/v γ-cyclodextrin, benzalkonium chloride 0.02%, disodium edetate 0.10%, sodium chloride 0.05%, read-out: Solubility (mg/mL) Eye drops
[6] = aqueous solution with 4 % w/v γ-cyclodextrin and tyloxapol (1% w/v), read-out: Solubility (mg/mL) Tyloxapol
[7] = aqueous γ-cyclodextrin solution, 4 % w/v γ-cyclodextrin, read-out: Solubility (mg/mL) γ-Cyclodextrin

SMILES: COc1cc2c(Oc3ccc4[nH]c(C)cc4c3F)ncnc2cc1OCCCN1CCCC1 [Cediranib]
K1:1 (M^−1), stability constant of drug/γ-cyclodextrin complex [1]: 23 M⁻¹
solubility ([2]; aqueous eye drop medium with 12% w/v γ-cyclodextrin, eye drop medium: 12 % w/v γ-cyclodextrin, benzalkonium chloride 0.02%, disodium edetate 0.10%, sodium chloride 0.05%, read-out: Solubility (mg/mL) Eye drops): 4.1 mg/mL (≈ 9100 µM)
solubility ([2]; aqueous solution with 12 % w/v γ-cyclodextrin and tyloxapol (1% w/v), read-out: Solubility (mg/mL) Tyloxapol): 2.8 mg/mL (≈ 6220 µM)
solubility ([2]; aqueous γ-cyclodextrin solution, 12 % w/v γ-cyclodextrin, read-out: Solubility (mg/mL) γ-Cyclodextrin): 2 mg/mL (≈ 4440 µM)
solubility [3]: 1.2 mg/mL (≈ 2660 µM)

SMILES: OC[C@H]1O[C@@H]2O[C@H]3[C@H](O)[C@@H](O)[C@@H](O[C@H]4[C@H](O)[C@@H](O)[C@@H](O[C@H]5[C@H](O)[C@@H](O)[C@@H](O[C@H]6[C@H](O)[C@@H](O)[C@@H](O[C@H]7[C@H](O)[C@@H](O)[C@@H](O[C@H]1[C@H](O)[C@H]2O)O[C@@H]7CO)O[C@@H]6CO)O[C@@H]5CO)O[C@@H]4CO)O[C@@H]3CO [α-cyclodextrin]
solubility in pure water [4]: 129500 ± 700 µg/mL (≈ 133000 µM)

SMILES: CN1CCN(c2ccc3nc(-c4c(N)c5c(F)cccc5[nH]c4=O)[nH]c3c2)CC1 [Dovitinib]
K1:1 (M^−1), stability constant of drug/γ-cyclodextrin complex [1]: 680 M⁻¹
S0 (mg/mL), solubility in pure water [3]: 0.006 mg/mL

SMILES: OC[C@H]1O[C@@H]2O[C@H]3[C@H](O)[C@@H](O)[C@@H](O[C@H]4[C@H](O)[C@@H](O)[C@@H](O[C@H]5[C@H](O)[C@@H](O)[C@@H](O[C@H]6[C@H](O)[C@@H](O)[C@@H](O[C@H]7[C@H](O)[C@@H](O)[C@@H](O[C@H]8[C@H](O)[C@@H](O)[C@@H](O[C@H]9[C@H](O)[C@@H](O)[C@@H](O[C@H]1[C@H](O)[C@H]2O)O[C@@H]9CO)O[C@@H]8CO)O[C@@H]7CO)O[C@@H]6CO)O[C@@H]5CO)O[C@@H]4CO)O[C@@H]3CO [γ-cyclodextrin]
solubility in pure water [4]: 249200 ± 200 µg/mL (≈ 192000 µM)

Continued, values first:

K1:1 (M^−1), stability constant of drug/γ-cyclodextrin complex [1]: 94 M⁻¹
solubility [2, 5]: 0.0008 mg/mL (≈ 1.66 µM)
solubility [2, 6]: 0.005 mg/mL (≈ 10.4 µM)
solubility [2, 7]: 0.0005 mg/mL (≈ 1.04 µM)
solubility [3]: 0.0001 mg/mL (≈ 0.207 µM)
SMILES: CNC(=O)c1cc(Oc2ccc(NC(=O)Nc3ccc(Cl)c(C(F)(F)F)c3)c(F)c2)ccn1 [Regorafenib]

K1:1 (M^−1), stability constant of drug/γ-cyclodextrin complex [1]: 260 M⁻¹
solubility [2, 5]: 0.007 mg/mL (≈ 18.1 µM)
solubility [2, 6]: 0.008 mg/mL (≈ 20.7 µM)
solubility [2, 7]: 0.003 mg/mL (≈ 7.76 µM)
solubility [3]: 0.0004 mg/mL (≈ 1.03 µM)
SMILES: CNC(=O)c1ccccc1Sc1ccc2c(/C=C/c3ccccn3)n[nH]c2c1 [Axitinib]

K1:1 (M^−1), stability constant of drug/γ-cyclodextrin complex [1]: 140 M⁻¹
solubility ([2]; aqueous eye drop medium with 8% w/v γ-cyclodextrin, eye drop medium: 8 % w/v γ-cyclodextrin, benzalkonium chloride 0.02%, disodium edetate 0.10%, sodium chloride 0.05%, read-out: Solubility (mg/mL) Eye drops): 0.07 mg/mL (≈ 187 µM)
solubility ([2]; aqueous solution with 8 % w/v γ-cyclodextrin and tyloxapol (1% w/v), read-out: Solubility (mg/mL) Tyloxapol): 0.04 mg/mL (≈ 107 µM)
solubility ([2]; aqueous γ-cyclodextrin solution, 8 % w/v γ-cyclodextrin, read-out: Solubility (mg/mL) γ-Cyclodextrin): 0.09 mg/mL (≈ 241 µM)
solubility [3]: 0.014 mg/mL (≈ 37.5 µM)
SMILES: CC1(C)CNc2cc(NC(=O)c3cccnc3NCc3ccncc3)ccc21 [Motesanib]

K1:1 (M^−1), stability constant of drug/γ-cyclodextrin complex [1]: 13 M⁻¹
solubility ([2]; aqueous eye drop medium with 16% w/v γ-cyclodextrin, eye drop medium: 16 % w/v γ-cyclodextrin, benzalkonium chloride 0.02%, disodium edetate 0.10%, sodium chloride 0.05%, read-out: Solubility (mg/mL) Eye drops): 0.01 mg/mL (≈ 22.9 µM)
solubility ([2]; aqueous solution with 16 % w/v γ-cyclodextrin and tyloxapol (1% w/v), read-out: Solubility (mg/mL) Tyloxapol): 0.006 mg/mL (≈ 13.7 µM)
solubility ([2]; aqueous γ-cyclodextrin solution, 16 % w/v γ-cyclodextrin, read-out: Solubility (mg/mL) γ-Cyclodextrin): 0.007 mg/mL (≈ 16 µM)
solubility [3]: 0.0006 mg/mL (≈ 1.37 µM)
SMILES: Cc1ccc(Nc2nccc(N(C)c3ccc4c(C)n(C)nc4c3)n2)cc1S(N)(=O)=O [Pazopanib]
